System: rat 187-2 gene
Assay: Expression analysis of the rat 187-2 gene in H9c2 cells by TaqMan PCR upon norepinephrine stimulation
Type: cell-based
Settings: serum-free DMEM, norepinephrine 10 nM or 100 nM, after 4 and 8 hours, corrected on G3PDH, versus absence of norepinephrine
Experimental: H9c2 cells are a cell strain derived from rat myocardial cells, and were purchased from ATCC. The cells were cultured in DMEM medium containing 10% bovine serum, and the cells were recovered using trypsin, inoculated at a density of 100000 cells/well of a 12-well plate and cultured for 12 hours in DMEM medium containing 10% bovine serum. Thereafter, the medium was exchanged with serum-free DMEM, and 10 nM norepinephrine was added at a concentration of 10 nM or 100 nM to the medium, and after 4 and 8 hours, the amount of the rat 187-2 gene expressed was quantified by TaqMan PCR.

In the case of NC[C@H](O)c1ccc(O)c(O)c1 [norepinephrine], the “amount of the rat 187-2 gene expressed (maximum level)” value is reported as “about twice that in the absence of norepinephrine”.
